{"source": "ChEMBL document CHEMBL1649270", "about": "“ST-246 inhibits in vivo poxvirus dissemination, virus shedding, and systemic disease manifestation” (2009)", "key": {"Vaccinia virus WR [1]": {"test_system": "Vaccinia virus WR", "test": "Antiviral activity against Vaccinia virus WR ATCC VR-1354 infected through intravenous route in BALB/c mouse assessed as reduction of viral load in lung at 100 mg/kg, po qd measured after 14 days postinfection by RT-PCR analysis relative to control", "format": "functional, organism-based", "design": "dose 100 mg/kg"}, "Vaccinia virus WR [2]": {"test_system": "Vaccinia virus WR", "test": "Antiviral activity against Vaccinia virus WR ATCC VR-1354 infected through intravenous route in BALB/c mouse assessed as reduction of viral load in blood at 100 mg/kg, po qd measured after 14 days postinfection by RT-PCR analysis relative to control", "format": "functional, organism-based", "design": "dose 100 mg/kg"}, "Vaccinia virus WR [3]": {"test_system": "Vaccinia virus WR", "test": "Antiviral activity against Vaccinia virus WR ATCC VR-1354 infected through intravenous route in BALB/c mouse assessed as reduction of viral load in brain at 100 mg/kg, po qd measured after 14 days postinfection by RT-PCR analysis relative to control", "format": "functional, organism-based", "design": "dose 100 mg/kg"}, "Vaccinia virus WR [4]": {"test_system": "Vaccinia virus WR", "test": "Antiviral activity against Vaccinia virus WR ATCC VR-1354 in african green monkey BSC-40 cells infected with 7 day postinfection nasal fluid from 100 mg/kg, po qd compound treated BALB/c mouse infected through percutaneous route assessed as reduction of viral attachment to cells by plaque titration assay", "format": "functional"}, "Vaccinia virus WR [5]": {"test_system": "Vaccinia virus WR", "test": "Antiviral activity against Vaccinia virus WR ATCC VR-1354 infected through dermal scarification route in ACAM2000 vaccinated BALB/c mouse assessed as reduction of swab virus titers at 100 mg/kg, po qd measured after 7 days postinfection by RT-PCR analysis relative to control", "format": "functional"}, "Vaccinia virus WR [6]": {"test_system": "Vaccinia virus WR", "test": "Antiviral activity against Vaccinia virus WR ATCC VR-1354 infected through dermal scarification route in ACAM2000 vaccinated BALB/c mouse assessed as reduction of swab virus titers at 100 mg/kg, po qd measured after 21 days postinfection by RT-PCR analysis relative to control", "format": "functional"}, "Vaccinia virus WR [7]": {"test_system": "Vaccinia virus WR", "test": "Antiviral activity against Vaccinia virus WR ATCC VR-1354 infected through percutaneous route in BALB/c mouse assessed as protection against weight loss at 100 mg/kg, po qd for 1 to 3 days measured on day 8", "format": "functional, organism-based", "design": "dose 100 mg/kg"}, "Vaccinia virus WR [8]": {"test_system": "Vaccinia virus WR", "test": "Antiviral activity against Vaccinia virus WR ATCC VR-1354 infected through percutaneous route in BALB/c mouse assessed as protection against weight loss at 100 mg/kg, po qd for 5 to 14 days measured on day 8", "format": "functional"}, "Vaccinia virus WR [9]": {"test_system": "Vaccinia virus WR", "test": "Antiviral activity against Vaccinia virus WR ATCC VR-1354 infected through percutaneous route in BALB/c mouse assessed as protection against hypothermia at 100 mg/kg, po qd for 1 to 3 days measured on day 2", "format": "functional, organism-based", "design": "dose 100 mg/kg"}, "Vaccinia virus WR [10]": {"test_system": "Vaccinia virus WR", "test": "Antiviral activity against Vaccinia virus WR ATCC VR-1354 infected through percutaneous route in BALB/c mouse assessed as protection against hypothermia at 100 mg/kg, po qd for 5 to 14 days", "format": "functional, organism-based", "design": "dose 100 mg/kg"}, "Vaccinia virus WR [11]": {"test_system": "Vaccinia virus WR", "test": "Antiviral activity against Vaccinia virus WR ATCC VR-1354 infected through percutaneous route in BALB/c mouse assessed as inhibition of virus dissemination in spleen at 100 mg/kg, po qd for 1 day by RT-PCR analysis relative to control", "format": "functional"}, "Vaccinia virus WR [12]": {"test_system": "Vaccinia virus WR", "test": "Antiviral activity against Vaccinia virus WR ATCC VR-1354 infected through percutaneous route in BALB/c mouse assessed as reduction of viral load in spleen at 100 mg/kg, po qd for 3 days by RT-PCR analysis relative to control", "format": "functional"}, "Vaccinia virus WR [13]": {"test_system": "Vaccinia virus WR", "test": "Antiviral activity against Vaccinia virus WR ATCC VR-1354 infected through intraperitoneal route in BALB/c mouse assessed as protection against virus-induced systemic disease symptoms at 100 mg/kg, po qd measured after 9 days postinfection", "format": "functional, organism-based", "design": "dose 100 mg/kg"}, "Vaccinia virus WR [14]": {"test_system": "Vaccinia virus WR", "test": "Antiviral activity against Vaccinia virus WR ATCC VR-1354 infected through dermal scarification route in BALB/c mouse assessed as protection against virus-induced conjunctivitis in mouse eyes at 100 mg/kg, po qd measured after 6 days postinfection", "format": "functional, organism-based", "design": "dose 100 mg/kg"}, "Vaccinia virus WR [15]": {"test_system": "Vaccinia virus WR", "test": "Antiviral activity against Vaccinia virus WR ATCC VR-1354 infected through intraperitoneal route in BALB/c mouse assessed as protection against virus-induced conjunctivitis in mouse eyes at 100 mg/kg, po qd measured after 6 days postinfection", "format": "functional, organism-based", "design": "dose 100 mg/kg"}, "Vaccinia virus WR [16]": {"test_system": "Vaccinia virus WR", "test": "Antiviral activity against Vaccinia virus WR ATCC VR-1354 infected through percutaneous route in BALB/c mouse assessed as reduction of viral load in blood at 100 mg/kg, po qd measured after 3 days postinfection by RT-PCR analysis relative to control", "format": "functional"}, "Vaccinia virus WR [17]": {"test_system": "Vaccinia virus WR", "test": "Antiviral activity against Vaccinia virus WR ATCC VR-1354 infected through percutaneous route in BALB/c mouse assessed as reduction of viral load in liver at 100 mg/kg, po qd measured after 3 days postinfection by RT-PCR analysis relative to control", "format": "functional"}, "Vaccinia virus WR [18]": {"test_system": "Vaccinia virus WR", "test": "Antiviral activity against Vaccinia virus WR ATCC VR-1354 infected through percutaneous route in BALB/c mouse assessed as reduction of viral load in blood at 100 mg/kg, po qd measured after 5 days postinfection by RT-PCR analysis relative to control", "format": "functional"}, "Vaccinia virus WR [19]": {"test_system": "Vaccinia virus WR", "test": "Antiviral activity against Vaccinia virus WR ATCC VR-1354 infected through percutaneous route in BALB/c mouse assessed as reduction of viral load in blood at 100 mg/kg, po qd measured after 7 days postinfection by RT-PCR analysis relative to control", "format": "functional, organism-based", "design": "dose 100 mg/kg"}, "Vaccinia virus WR [20]": {"test_system": "Vaccinia virus WR", "test": "Antiviral activity against Vaccinia virus WR ATCC VR-1354 infected through percutaneous route in BALB/c mouse assessed as reduction of viral load in blood at 100 mg/kg, po qd measured after 13 days postinfection by RT-PCR analysis relative to control", "format": "functional, organism-based", "design": "dose 100 mg/kg"}, "Vaccinia virus WR [21]": {"test_system": "Vaccinia virus WR", "test": "Antiviral activity against Vaccinia virus WR ATCC VR-1354 infected through percutaneous route in BALB/c mouse assessed as reduction of viral load in spleen at 100 mg/kg, po qd measured after 13 days postinfection by RT-PCR analysis relative to control", "format": "functional, organism-based", "design": "dose 100 mg/kg"}, "Vaccinia virus WR [22]": {"test_system": "Vaccinia virus WR", "test": "Antiviral activity against Vaccinia virus WR ATCC VR-1354 infected through dermal scarification route in BALB/c mouse assessed as reduction of viral load in blood at 100 mg/kg, po qd measured after 5 days postinfection by RT-PCR analysis relative to control", "format": "functional"}, "Vaccinia virus WR [23]": {"test_system": "Vaccinia virus WR", "test": "Antiviral activity against Vaccinia virus WR ATCC VR-1354 infected through dermal scarification route in BALB/c mouse assessed as reduction of viral load in liver at 100 mg/kg, po qd measured after 5 days postinfection by RT-PCR analysis relative to control", "format": "functional"}, "Vaccinia virus WR [24]": {"test_system": "Vaccinia virus WR", "test": "Antiviral activity against Vaccinia virus WR ATCC VR-1354 infected through dermal scarification route in BALB/c mouse assessed as reduction of viral load in brain at 100 mg/kg, po qd measured after 5 days postinfection by RT-PCR analysis relative to control", "format": "functional"}, "Vaccinia virus WR [25]": {"test_system": "Vaccinia virus WR", "test": "Antiviral activity against Vaccinia virus WR ATCC VR-1354 infected through dermal scarification route in BALB/c mouse assessed as reduction of viral load in blood at 100 mg/kg, po qd measured after 14 days postinfection by RT-PCR analysis relative to control", "format": "functional, organism-based", "design": "dose 100 mg/kg"}, "Vaccinia virus WR [26]": {"test_system": "Vaccinia virus WR", "test": "Antiviral activity against Vaccinia virus WR ATCC VR-1354 infected through dermal scarification route in BALB/c mouse assessed as reduction of viral load in spleen at 100 mg/kg, po qd measured after 14 days postinfection by RT-PCR analysis relative to control", "format": "functional, organism-based", "design": "dose 100 mg/kg"}}, "note": "Active and inactive are the calls of the source. The calls are words filed in the database; no cut-off is given here."}
{"compound": "O=C(NN1C(=O)[C@@H]2[C@@H]3C=C[C@@H]([C@H]4C[C@@H]34)[C@@H]2C1=O)c1ccc(C(F)(F)F)cc1", "note": "[TECOVIRIMAT]", "values": [{"measurement": "Activity", "setting": "Vaccinia virus WR [1]", "value": "Active"}, {"measurement": "Activity", "setting": "Vaccinia virus WR [2]", "value": "Active"}, {"measurement": "Activity", "setting": "Vaccinia virus WR [3]", "value": "Active"}, {"measurement": "fold change (FC)", "setting": "Vaccinia virus WR [4]", "value": 22}, {"measurement": "fold change (FC)", "setting": "Vaccinia virus WR [5]", "value": 53}, {"measurement": "fold change (FC)", "setting": "Vaccinia virus WR [6]", "value": 3900}, {"measurement": "Activity", "setting": "Vaccinia virus WR [7]", "value": "inactive"}, {"measurement": "Activity", "setting": "Vaccinia virus WR [8]", "value": ">70", "unit": "%"}, {"measurement": "Activity", "setting": "Vaccinia virus WR [9]", "value": "inactive"}, {"measurement": "Activity", "setting": "Vaccinia virus WR [10]", "value": "Active"}, {"measurement": "fold change (FC)", "setting": "Vaccinia virus WR [11]", "value": 17}, {"measurement": "fold change (FC)", "setting": "Vaccinia virus WR [12]", "value": 300}, {"measurement": "Activity", "setting": "Vaccinia virus WR [13]", "value": "Active"}, {"measurement": "Activity", "setting": "Vaccinia virus WR [14]", "value": "Active"}, {"measurement": "Activity", "setting": "Vaccinia virus WR [15]", "value": "Active"}, {"measurement": "fold change (FC)", "setting": "Vaccinia virus WR [16]", "value": 8}, {"measurement": "fold change (FC)", "setting": "Vaccinia virus WR [17]", "value": 45}, {"measurement": "fold change (FC)", "setting": "Vaccinia virus WR [18]", "value": 90}, {"measurement": "Activity", "setting": "Vaccinia virus WR [19]", "value": "Active"}, {"measurement": "Activity", "setting": "Vaccinia virus WR [20]", "value": "Active"}, {"measurement": "Activity", "setting": "Vaccinia virus WR [21]", "value": "Active"}, {"measurement": "fold change (FC)", "setting": "Vaccinia virus WR [22]", "value": 260}, {"measurement": "fold change (FC)", "setting": "Vaccinia virus WR [23]", "value": 8}, {"measurement": "fold change (FC)", "setting": "Vaccinia virus WR [24]", "value": 3}, {"measurement": "Activity", "setting": "Vaccinia virus WR [25]", "value": "Active"}, {"measurement": "Activity", "setting": "Vaccinia virus WR [26]", "value": "Active"}]}
